Experimental findings from ChEMBL document CHEMBL4052802, “Design, synthesis and biological evaluation of novel 3-oxo-4-oxa-5α-androst-17β-amide derivatives as dual 5α-reductase inhibitors and androgen receptor antagonists” (Bioorg Med Chem Lett, 2017) are described below.

Data set [1] can be described thus: Tmax in Sprague-Dawley rat at 0.2 mg/kg, po by LC-MS/MS analysis. Type of data set: ADME, organism-based. The following applies: in vivo.
The nature of data set [2]: Inhibition of rat liver 5alpha-reductase using testosterone as substrate incubated for 30 mins measured for 10 mins by fluorescence assay.
Data set [3] in a line: AUC (0 to infinity) in Sprague-Dawley rat at 0.2 mg/kg, po by LC-MS/MS analysis. Type of data set: ADME, organism-based. Details: dose 0.2 mg/kg, route oral, time infinity; call rule not given here. To be noted: in vivo.
Data set [4] in a line: Selectivity ratio of IC50 for human PC3 cells to IC50 for human LNCAP cells. It is filed as functional.
Data set [5] relates to LNCaP. The experiment in a line: Growth inhibition of human LNCAP cells at 80 uM after 48 hrs by MTT assay relative to control. It is filed as functional. To be noted: read-out: GI.
For the next data set, the target named is T1, Androgen receptor (Rattus norvegicus, UniProt P15207).
T1 sequence (P15207 whole entry): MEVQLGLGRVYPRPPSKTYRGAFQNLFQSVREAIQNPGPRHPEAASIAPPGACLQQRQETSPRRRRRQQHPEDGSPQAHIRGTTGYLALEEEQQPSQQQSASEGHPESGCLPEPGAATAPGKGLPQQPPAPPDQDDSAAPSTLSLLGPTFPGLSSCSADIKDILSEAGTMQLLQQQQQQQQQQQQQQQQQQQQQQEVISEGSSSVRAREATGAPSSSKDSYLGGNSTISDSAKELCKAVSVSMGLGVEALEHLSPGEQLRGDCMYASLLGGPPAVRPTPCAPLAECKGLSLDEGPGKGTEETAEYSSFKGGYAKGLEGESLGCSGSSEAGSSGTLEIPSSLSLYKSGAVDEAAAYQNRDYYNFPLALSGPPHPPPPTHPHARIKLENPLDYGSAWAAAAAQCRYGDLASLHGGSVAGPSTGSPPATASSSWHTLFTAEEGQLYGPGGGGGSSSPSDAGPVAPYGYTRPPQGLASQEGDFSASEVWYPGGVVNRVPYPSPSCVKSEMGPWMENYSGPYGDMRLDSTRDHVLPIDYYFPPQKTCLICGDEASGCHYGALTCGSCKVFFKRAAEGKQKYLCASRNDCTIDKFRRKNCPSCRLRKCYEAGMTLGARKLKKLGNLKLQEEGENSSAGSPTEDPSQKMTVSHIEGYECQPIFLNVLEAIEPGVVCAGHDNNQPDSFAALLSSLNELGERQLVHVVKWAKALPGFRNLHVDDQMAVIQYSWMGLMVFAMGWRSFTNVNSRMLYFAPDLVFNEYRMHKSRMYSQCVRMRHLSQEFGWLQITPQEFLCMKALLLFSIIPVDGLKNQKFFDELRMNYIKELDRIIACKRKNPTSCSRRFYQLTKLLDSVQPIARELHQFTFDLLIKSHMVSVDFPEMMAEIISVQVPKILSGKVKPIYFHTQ
The experiment in a line: Displacement of fluormone-AL Green from recombinant rat His-tagged/GST-fused androgen receptor LBD expressed in baculovirus expression system measured after 1.5 hrs by fluorescence polarization assay. In general terms: In fluorescence polarisation assays a small probe gives low polarisation when free and higher when bound to something large.

Data set [6] deals with Plasma. As to the kind of experiment: Retention time in Sprague-Dawley rat plasma at 0.2 mg/kg, po measured after 24 hrs by total ion chromatographic method. It is filed as ADME, organism-based. To be noted: in vivo.
For data set [7], the system named is Plasma. The experiment in a line: Drug uptake in Sprague-Dawley rat plasma at 0.2 mg/kg, po after 6 hrs by LC-MS/MS analysis. Type of data set: ADME, organism-based. The following applies: in vivo.
The nature of data set [8]: AUC (0 to t) in Sprague-Dawley rat at 0.2 mg/kg, po by LC-MS/MS analysis. It is filed as ADME, organism-based. To be noted: in vivo.
The next data set is filed under the species Rattus norvegicus. The experiment in a line: Inhibition of rat liver 5alpha-reductase at 50 uM using testosterone as substrate incubated for 30 mins measured for 10 mins by fluorescence assay relative to control.
A short description of data set [9]: Elimination half-life in Sprague-Dawley rat at 0.2 mg/kg, po by LC-MS/MS analysis. It is filed as ADME, organism-based. The following applies: in vivo, read-out: beta t1/2 (converted).
In data set [10] the test system is LNCaP. The experiment in a line: Cytotoxicity against human LNCAP cells after 48 hrs by MTT assay. Type of data set: functional, cell-based. In general terms: Tetrazolium dyes change colour on reduction, which living cells bring about.
Data set [11] has as its system PC-3. The experiment in a line: Cytotoxicity against human PC3 cells after 48 hrs by MTT assay. It is filed as functional, cell-based. The following applies: PC-3, 48 h.
The test system of data set [12] is PC-3. The experiment in a line: Growth inhibition of human PC3 cells at 80 uM after 48 hrs by MTT assay relative to control. Type of data set: functional. The following applies: PC-3, 48 h, read-out: GI.
Data set [13] is described as follows: Cmax in Sprague-Dawley rat at 0.2 mg/kg, po by LC-MS/MS analysis. Details: dose 0.2 mg/kg, route oral. Type of data set: ADME, organism-based. The following applies: in vivo.
The target in data set [14] is Androgen receptor (Homo sapiens) (UniProt P10275). The experiment in a line: Inhibition of recombinant human His-tagged/GST-fused androgen receptor LBD expressed in baculovirus expression system at 50 uM measured after 1.5 hrs by fluorescence polarization assay relative to control.

With `Cc1ccc(NC(=O)[C@H]2CC[C@H]3[C@@H]4CC[C@H]5OC(=O)CC[C@]5(C)[C@H]4CC[C@]23C)cc1`, the Tmax (commonly the time at which the peak concentration occurs) in [1] worked out at 3.83 h. The half-maximal inhibitory concentration (IC50) (as a rule, the concentration that gives 50% inhibition) in data set [2] amounted to 0.27 µM; on Androgen receptor, 47.6 µM; in the data set on LNCaP [10], 26.5 µM; in the data set on PC-3 [11] it was 114 µM. Also, in [3], the AUC(0-inf) – broadly, the area under the concentration-time curve extrapolated to infinity – is 54.1 ng·h/mL. The “Ratio IC50” value in [4] is 4. Further, the inhibition of growth at 80 µM with LNCaP [5] amounted to 82.3%; in the data set with PC-3 [12] it was 18.1%. In the data set on Plasma [6], this compound registered a Retention_time of 3.6 min. In addition, the Drug uptake result with Plasma [7] is given as “Not Active”. In addition, the AUC(0-t) (as a rule, exposure summed from dosing to a finite time, without extrapolation to infinity) in [8] was determined as 52.5 ng·h/mL. In addition, the inhibition (as a rule, how much of the control response was suppressed) turned out to be 98.5% in the data set listed under Rattus norvegicus and 55.5% in data set [14]. The half-life in data set [9] is 4.74 h. Besides, the Cmax (usually the maximum level reached in the sampled fluid or tissue) in data set [13] turned out to be 6.89 ng/mL.
